Results as given in PubChem BioAssay (NCI).
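Step 1: Grow cells in 96-well plates. Step 2: Expose to compound for 48 hours at 5 concentrations. Step 3: Interpolate endpoints linearly; if unreached, use highest concentration. Abbreviation: GI50, concentration required for 50% inhibition of growth. TGI: concentration producing complete growth inhibition.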

Legend:
Experiment in all cases: NCI anticancer screen, dose series, 48 h
[1] = tested on: RXF 393 renal
[2] = tested on: MOLT-4 leukemia
[3] = tested on: U251 CNS
[4] = tested on: TK-10 renal
[5] = tested on: SK-MEL-28 melanoma
[6] = tested on: SW-620 colon
[7] = tested on: MDA-MB-231 breast
[8] = tested on: NCI-H23 lung
[9] = tested on: NCI-H522 lung
[10] = tested on: MALME-3M melanoma
[11] = tested on: CCRF-CEM leukemia
[12] = tested on: SF-539 CNS
[13] = tested on: IGROV1 ovarian
[14] = tested on: HOP-62 NSCLC
[15] = tested on: NCI/ADR-RES ovarian
[16] = tested on: PC-3 prostate
[17] = tested on: LOX IMVI melanoma
[18] = tested on: HOP-92 NSCLC
[19] = tested on: HS 578T breast
[20] = tested on: EKVX NSCLC
[21] = tested on: HT29 colon
[22] = tested on: SN12C renal
[23] = tested on: M14 melanoma
[24] = tested on: K-562 leukemia
[25] = tested on: ACHN renal
[26] = tested on: HCC-2998 colon
[27] = tested on: A549 NSCLC
[28] = tested on: CAKI-1 renal
[29] = tested on: NCI-H460 lung
[30] = tested on: DU-145 prostate
[31] = tested on: NCI-H226 lung
[32] = tested on: UACC-257 melanoma
[33] = tested on: SK-MEL-2 melanoma
[34] = tested on: HCT-15 colon
[35] = tested on: SF-295 CNS
[36] = tested on: UO-31 renal
[37] = tested on: OVCAR-3 ovarian
[38] = tested on: HCT-116 colon
[39] = tested on: A498 renal
[40] = tested on: SK-MEL-5 melanoma
[41] = tested on: BT-549 breast
[42] = tested on: RPMI-8226 leukemia
[43] = tested on: T-47D breast
[44] = tested on: SK-OV-3 ovarian
[45] = tested on: UACC-62 melanoma
[46] = tested on: OVCAR-8 ovarian
[47] = tested on: KM12 colon
[48] = tested on: 786-0 renal
[49] = tested on: OVCAR-5 ovarian
[50] = tested on: MCF7 breast
[51] = tested on: MDA-MB-435
[52] = tested on: OVCAR-4 ovarian
[53] = tested on: HL-60(TB) leukemia
[54] = tested on: COLO 205 colon
[55] = tested on: SF-268 CNS

Work on `C=CCC(N[C@@H](CO)c1ccccc1)c1cn(C(=O)OCC)c2ccccc12` (stereo not given in full) yielded a GI50 [1] of 22.8 µM, a TGI [1] of 84.2 µM and a GI50 [2] of 15.5 µM. For the same compound, the TGI [2] was over 100 µM, the GI50 [3] was 17.9 µM and the TGI [3] was 32.4 µM. For the same compound, the GI50 [4] was 23.2 µM, the TGI [4] was 73.6 µM and the GI50 [5] was 34.1 µM. It also gave a TGI [5] of over 100 µM, a GI50 [6] of 28.6 µM and a TGI [6] of over 100 µM. For the same compound, the GI50 [7] was 20.6 µM, the TGI [7] was 43.5 µM and the GI50 [8] was 20.5 µM. For the same compound, the TGI [8] was 49.6 µM, the GI50 [9] was 21.9 µM and the TGI [9] was 46.8 µM. It also gave a GI50 [10] of 17.1 µM, a TGI [10] of 39.1 µM and a GI50 [11] of 19.2 µM. It also gave a TGI [11] of 56.7 µM, a GI50 [12] of 20.6 µM and a TGI [12] of 37.3 µM. The GI50 [13] was 23.1 µM, the TGI [13] was over 100 µM and the GI50 [14] was 20.4 µM. The TGI [14] was 45.8 µM, the GI50 [15] was 18.9 µM and the TGI [15] was 55.5 µM. It also gave a GI50 [16] of 22.3 µM, a TGI [16] of over 100 µM and a GI50 [17] of 16.7 µM. It also gave a TGI [17] of 32.2 µM, a GI50 [18] of 16.5 µM and a TGI [18] of 39.8 µM. It also gave a GI50 [19] of 21 µM, a TGI [19] of 40.3 µM and a GI50 [20] of 35.3 µM. For the same compound, the TGI [20] was over 100 µM, the GI50 [21] was 23.3 µM and the TGI [21] was 62.7 µM. For the same compound, the GI50 [22] was 21.4 µM, the TGI [22] was 39.2 µM and the GI50 [23] was 18.1 µM. For the same compound, the TGI [23] was 34.4 µM, the GI50 [24] was 22.6 µM and the TGI [24] was over 100 µM. It also gave a GI50 [25] of 24.3 µM, a TGI [25] of 63 µM and a GI50 [26] of 16.3 µM. It also gave a TGI [26] of 31.8 µM, a GI50 [27] of 34.7 µM and a TGI [27] of over 100 µM. The GI50 [28] was 13.6 µM, the TGI [28] was 53.5 µM and the GI50 [29] was 26.2 µM. For the same compound, the TGI [29] was 70.1 µM, the GI50 [30] was 27.6 µM and the TGI [30] was 86 µM. It also gave a GI50 [31] of 23.1 µM, a TGI [31] of 48.7 µM and a GI50 [32] of 22.9 µM. For the same compound, the TGI [32] was 66 µM, the GI50 [33] was 33.7 µM and the TGI [33] was over 100 µM. The GI50 [34] was 18.9 µM, the TGI [34] was 40.8 µM and the GI50 [35] was 20.8 µM. For the same compound, the TGI [35] was 53.9 µM, the GI50 [36] was 32.3 µM and the TGI [36] was over 100 µM. For the same compound, the GI50 [37] was 15.8 µM, the TGI [37] was 31.7 µM and the GI50 [38] was 15.5 µM. It also gave a TGI [38] of 29.3 µM, a GI50 [39] of 25.9 µM and a TGI [39] of 61.6 µM. It also gave a GI50 [40] of 14.2 µM, a TGI [40] of 28.9 µM and a GI50 [41] of 32.9 µM. The TGI [41] was over 100 µM, the GI50 [42] was 17.9 µM and the TGI [42] was 52.3 µM. It also gave a GI50 [43] of 25.8 µM, a TGI [43] of over 100 µM and a GI50 [44] of 49.1 µM. It also gave a TGI [44] of over 100 µM, a GI50 [45] of 30.4 µM and a TGI [45] of 98.4 µM. It also gave a GI50 [46] of 31.7 µM, a TGI [46] of over 100 µM and a GI50 [47] of 15.2 µM. The TGI [47] was 33.6 µM, the GI50 [48] was 18 µM and the TGI [48] was 36.7 µM. It also gave a GI50 [49] of 23.3 µM, a TGI [49] of 66.1 µM and a GI50 [50] of 29.4 µM. The TGI [50] was over 100 µM, the GI50 [51] was 22.7 µM and the TGI [51] was 55.9 µM. It also gave a GI50 [52] of 81.5 µM, a TGI [52] of over 100 µM and a GI50 [53] of 24.1 µM. The TGI [53] was over 100 µM, the GI50 [54] was 20.1 µM and the TGI [54] was 44.1 µM. For the same compound, the GI50 [55] was 23 µM and the TGI [55] was 54.5 µM.
